Key:
Assay type in all cases: cell-based, human
SCC-25 cells [1] = test: Annexin V assay with and without irradiation; conditions: alone or in combination with irradiation
Description: (§1) Head and neck cancer (HNC) cell lines were used for further analyses. Cells were seeded in 60 mm dishes at a density of 8×10^5 cells/dish. After 24 hours, cells were treated with LCMT-li, radiotherapy or both. Control cells were given fresh media. Because radiosensitization was seen between 2.5-10 μM in SCC-15, SCC-25, UM-SCC-49, and UM-SCC-69, irradiated cells were treated with or without 10 μM LCMT-li as described. Twenty-four hours after treatment, cells were lifted with Accutase and washed twice with PBS (pH 7.4) with 10% FBS. Cells were resuspended in annexin V binding buffer (10 mM HEPES (pH 7.4), 140 mM NaCl and 2.5 mM CaCl2)) and labeled with FITC-anti-Annexin V and 7-AAD (Biolegend, San Diego, California, FITC Annexin V Apoptosis Detection Kit with 7-AAD, catalog #640922). Cell surface annexin V expression was assessed immediately with flow cytometry. Annexin V assays were performed with 12 replicates, 104 cells/replicate.

UM-SCC-49 cells [2] = test: Annexin V assay with and without irradiation; conditions: LCMT-li, irradiation or both
Description: as §1

UM-SCC-69 cells [3] = test: Annexin V assay with and without irradiation
Description: as §1

SCC-15 cells [4] = test: Annexin V assay with and without irradiation
Description: as §1

UM-SCC-12 cells [5] = test: Annexin V assay with and without irradiation
Description: as §1

UM-SCC-14a cells = test: Annexin V assay with and without irradiation; conditions: LCMT-li combined with irradiation
Description: as §1

501-MEL cells = test: Radiosensitization assay (crystal violet); conditions: 8 Grays
Description: (§2) MCF7, MDA-MB-231, 501-MEL, Rosi, A549, SCC-15, SCC-25, UM-SCC-12, UM-SCC-14a, UM-SCC-49 and UM-SCC69 cells were seeded in 96-well tissue culture plates as previously described. After 24 hours, the media were changed to media with LCMT-li at various concentrations as described. After 3 hours, cells were irradiated at doses listed in Table 2 with an RS-2000 X-Ray Irradiator (Rad Source Technologies, Buford, Georgia). Radiation doses were based on published radiosensitization studies. After 24 hours cell viability was assessed using crystal violet staining. Briefly, cells were washed with PBS, then stained with crystal violet solution (0.25 g crystal violet in 20% methanol) for 20 minutes with agitation. The wells were washed 6 times with PBS to remove excess crystal violet. Plates were allowed to dry for 48 hours, and then 200 μL methanol was added to each well. The plates were agitated for 20 minutes to dissolve the crystal violet, and absorbance was read at 560 nm. The
(§3) radiosensitization assays were performed twice, each time with eight replicates per condition.

SCC-25 cells [6] = test: Radiosensitization assay (crystal violet); conditions: irradiated 8 Grays 3 hours after compound, viability after 24 hours
Description: as §2, §3

UM-SCC-49 cells [7] = test: Radiosensitization assay (crystal violet); conditions: irradiated 8 Grays 3 hours after compound, viability after 24 hours, listed as LCMT-li
Description: as §2, §3

UM-SCC-69 cells [8] = test: Radiosensitization assay (crystal violet); conditions: irradiated 8 Grays 3 hours after compound, viability after 24 hours, listed as LCMT-li
Description: as §2, §3

MCF7 cells [9] = test: Radiosensitization assay (crystal violet); conditions: 4 Grays
Description: as §2, §3

SCC-15 cells [10] = test: Radiosensitization assay (crystal violet); conditions: irradiated 8 Grays 3 hours after compound, viability after 24 hours, listed as LCMT-li
Description: as §2, §3

Rosi cells [11] = test: Radiosensitization assay (crystal violet)
Description: as §2, §3

UM-SCC-12 cells [12] = test: Radiosensitization assay (crystal violet); conditions: irradiated 8 Grays 3 hours after compound, viability after 24 hours
Description: as §2, §3

A549 cells = test: Radiosensitization assay (crystal violet); conditions: 4 Grays
Description: as §2, §3

MDA-MB-231 cells [13] = test: Radiosensitization assay (crystal violet); conditions: 10 Grays, data not shown
Description: as §2, §3

MCF7 cells [14] = test: Colony forming assay; conditions: 50-3.25 μM, one week
Description: (§4) MCF7, MDA-MB-231 and Rosi cells were seeded in 96-well tissue culture plates (Celltreat, Pepperell, Massachusetts) at a density of 90 cells per well (Mayr et al. Int J Mol Sci. 2018; 19(3)). After 24 hours, the media were changed to media containing LB-100 or Compound 2 at various concentrations (50-3.25 μM). Control cells were given fresh media. After one week the media were aspirated and the wells were washed with PBS. Cells were stained with crystal violet solution (0.25 g crystal violet in 20% methanol) for 10 minutes. The wells were washed 6 times with PBS to remove excess crystal violet. Colonies were counted with an ECHO Revolve hybrid microscope at 1.5× magnification. There were ten replicates for each condition.

Rosi cells [15] = test: Colony forming assay; conditions: 50-3.25 μM, one week
Description: as §4

MDA-MB-231 cells [16] = test: Colony forming assay; conditions: 50-3.25 μM, one week
Description: as §4

[17] = 10 μM LCMT-li with irradiation vs irradiation alone
[18] = LCMT-li monotherapy vs control cells

## COC(=O)c1c(NC(=O)c2ccccc2C)sc(C(=O)Nc2cccc(C)c2)c1C [Compound 2, methyl 4-methyl-2-[(2-methylbenzoyl)amino]-5-[[(3-methylphenyl)amino]carbonyl]-3-thiophenecarboxylate]
SCC-25 cells [1]
  apoptosis or ferroptosis: did not increase apoptosis or ferroptosis
UM-SCC-49 cells [2]
  apoptosis, necroptosis and ferroptosis: did not differ between the experimental conditions
UM-SCC-69 cells [3]; [17]
  apoptosis (annexin V): increased apoptosis in comparison to irradiation alone
UM-SCC-69 cells [3]; [18]
  apoptosis (annexin V): increased apoptosis
SCC-15 cells [4]; [17]
  apoptosis (annexin V): increased apoptosis in comparison to irradiation alone
SCC-15 cells [4]; LCMT-li monotherapy vs control cells, 24 hours
  apoptosis (annexin V): increased apoptosis
UM-SCC-12 cells [5]; [18]
  apoptosis (annexin V): increased apoptosis
UM-SCC-12 cells [5]; with irradiation vs irradiation alone
  apoptosis (annexin V): did not increase apoptosis in the presence of irradiation as compared to irradiation alone
UM-SCC-14a cells
  programmed cell death: did not increase programmed cell death
501-MEL cells
  radiosensitization: did radiosensitize these cells
SCC-25 cells [6]; listed as LCMT-1i
  LCMT-1i radiosensitizing Concentration: 1.25 µM
SCC-25 cells [6]; listed as LCMT-li
  LCMT-1i radiosensitizing Concentration: 2.5 to 10 µM
UM-SCC-49 cells [7]
  LCMT-1i radiosensitizing Concentration: 2.5 to 10 µM
UM-SCC-69 cells [8]
  LCMT-1i radiosensitizing Concentration: 2.5 to 10 µM
MCF7 cells [9]
  radiosensitization: did sensitize MCF7 cells to irradiation
SCC-15 cells [10]
  LCMT-1i radiosensitizing Concentration: 2.5 to 10 µM
Rosi cells [11]; 8 Grays
  radiosensitization: demonstrated radiosensitization
Rosi cells [11]; irradiated 8 Grays 3 hours after compound, viability after 24 hours
  LCMT-1i radiosensitizing Concentration: 50 µM
UM-SCC-12 cells [12]
  LCMT-1i radiosensitizing Concentration: 200 µM
A549 cells
  radiosensitization: demonstrated radiosensitization
MDA-MB-231 cells [13]
  radiosensitization: did not radiosensitize MDA-MB-231 cells
MCF7 cells [14]
  clonogenic colony formation: inhibited to a lesser extent
Rosi cells [15]
  clonogenic colony formation: inhibited colony formation
MDA-MB-231 cells [16]
  clonogenic colony formation: inhibited colony formation
